Reference: paper PMC3100226 (Journal of Pain Research, 2011)

Columns and labels:
I1 = I1 (Bos taurus, UniProt F1N322); experiment: Receptor characterization panel: I1 binding; set-up: species or system bovine; conditions: read-out: 10 μM CR4056 (% effect), inhibition of specific binding
D2 = D2 (Rattus norvegicus, UniProt P61169); experiment: Receptor characterization panel: D2 binding; conditions: read-out: 10 μM CR4056 (% effect), inhibition of specific binding
human recombinant MAO-B = target: T1, human recombinant MAO-B (Homo sapiens, UniProt P27338); experiment: Human recombinant MAO-B functional assay; type: biochemical
T1 sequence (P27338 1-520): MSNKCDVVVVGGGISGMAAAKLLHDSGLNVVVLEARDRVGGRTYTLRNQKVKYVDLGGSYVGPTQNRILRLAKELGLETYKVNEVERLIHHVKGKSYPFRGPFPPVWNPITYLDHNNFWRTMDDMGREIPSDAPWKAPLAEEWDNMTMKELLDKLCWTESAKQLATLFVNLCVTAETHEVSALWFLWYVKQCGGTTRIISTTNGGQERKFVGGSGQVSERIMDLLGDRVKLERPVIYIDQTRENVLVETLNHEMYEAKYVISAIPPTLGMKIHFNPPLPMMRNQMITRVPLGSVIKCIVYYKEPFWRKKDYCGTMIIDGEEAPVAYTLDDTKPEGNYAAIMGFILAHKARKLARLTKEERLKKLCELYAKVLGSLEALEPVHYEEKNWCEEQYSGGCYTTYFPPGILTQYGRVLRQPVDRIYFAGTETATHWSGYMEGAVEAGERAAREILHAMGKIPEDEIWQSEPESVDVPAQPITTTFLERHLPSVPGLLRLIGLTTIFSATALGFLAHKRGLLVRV

CCK2 = target: T2, CCK2 (Cavia porcellus, UniProt H0VZC5); experiment: Receptor characterization panel: CCK2 binding; set-up: species or system guinea pig; conditions: read-out: 10 μM CR4056 (% effect), inhibition of specific binding
T2 sequence (H0VZC5 1-426): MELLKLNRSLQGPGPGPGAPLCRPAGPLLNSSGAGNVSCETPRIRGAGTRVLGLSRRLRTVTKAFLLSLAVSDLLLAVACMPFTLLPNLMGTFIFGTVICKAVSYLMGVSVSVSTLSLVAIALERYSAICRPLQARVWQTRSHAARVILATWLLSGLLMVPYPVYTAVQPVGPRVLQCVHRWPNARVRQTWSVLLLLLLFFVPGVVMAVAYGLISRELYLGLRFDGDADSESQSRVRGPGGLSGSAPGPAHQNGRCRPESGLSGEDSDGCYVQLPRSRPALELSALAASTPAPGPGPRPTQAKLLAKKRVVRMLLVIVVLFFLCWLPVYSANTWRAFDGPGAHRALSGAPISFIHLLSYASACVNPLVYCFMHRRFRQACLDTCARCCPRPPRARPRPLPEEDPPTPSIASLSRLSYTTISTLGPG

GABA-A (muscimol site) = experiment: Receptor characterization panel: GABA-A muscimol site binding; conditions: 10 μM; [3H]Muscimol; cerebral cortex/rat
[1] = tested on: acid-induced muscle allodynia in rats; experiment: Acid-induced muscle allodynia; type: in vivo; conditions: rat; for Mechanical threshold (grams) ± SEM, left paw (SX) / Mechanical threshold (grams) ± SEM, right paw (DX): day 6 after treatment, OS
human recombinant MAO-A = human recombinant MAO-A (Homo sapiens, UniProt P21397); experiment: Human recombinant MAO-A functional assay; type: biochemical
human recombinant MAO-A, sequence (P21397 whole entry): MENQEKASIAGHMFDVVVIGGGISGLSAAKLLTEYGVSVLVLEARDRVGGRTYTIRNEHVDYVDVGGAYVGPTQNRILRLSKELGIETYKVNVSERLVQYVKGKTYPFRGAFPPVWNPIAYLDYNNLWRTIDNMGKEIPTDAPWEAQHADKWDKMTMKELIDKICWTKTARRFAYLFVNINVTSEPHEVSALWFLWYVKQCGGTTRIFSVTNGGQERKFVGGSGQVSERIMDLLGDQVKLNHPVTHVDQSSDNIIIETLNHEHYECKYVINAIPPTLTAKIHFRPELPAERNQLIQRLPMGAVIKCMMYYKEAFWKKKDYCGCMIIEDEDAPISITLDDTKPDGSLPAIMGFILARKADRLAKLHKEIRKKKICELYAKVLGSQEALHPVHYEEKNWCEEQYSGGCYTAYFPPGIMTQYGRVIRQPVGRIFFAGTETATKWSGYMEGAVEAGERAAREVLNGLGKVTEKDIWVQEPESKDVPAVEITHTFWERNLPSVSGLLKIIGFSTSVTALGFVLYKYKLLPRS

[2] = tested on: capsaicin-induced neurogenic/inflammatory pain in rats; experiment: Capsaicin-induced mechanical hyperalgesia; type: in vivo; conditions: rat
[3] = tested on: STZ-induced diabetic pain in rats; experiment: Streptozotocin-induced neuropathic; type: in vivo; conditions: rat, 60 mg/kg oral
D1 = D1 (Rattus norvegicus, UniProt P18901); experiment: Receptor characterization panel: D1 binding; conditions: read-out: 10 μM CR4056 (% effect), inhibition of specific binding
D1, sequence (P18901 whole entry): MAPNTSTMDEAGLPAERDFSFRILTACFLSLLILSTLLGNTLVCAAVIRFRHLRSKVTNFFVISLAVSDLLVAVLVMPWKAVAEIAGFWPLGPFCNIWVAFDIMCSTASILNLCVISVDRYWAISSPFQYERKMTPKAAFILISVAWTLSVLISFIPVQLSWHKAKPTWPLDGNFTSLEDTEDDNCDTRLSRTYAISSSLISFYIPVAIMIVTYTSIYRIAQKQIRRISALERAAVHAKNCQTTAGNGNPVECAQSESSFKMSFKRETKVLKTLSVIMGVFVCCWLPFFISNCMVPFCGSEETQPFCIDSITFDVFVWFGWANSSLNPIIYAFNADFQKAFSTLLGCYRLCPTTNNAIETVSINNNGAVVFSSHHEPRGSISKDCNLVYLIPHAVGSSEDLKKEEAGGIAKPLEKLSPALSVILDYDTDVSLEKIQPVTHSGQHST

[4] = tested on: neuromuscular coordination of rats; experiment: Rotarod test; type: in vivo; conditions: rat; oral 3–30 mg/kg

D2, sequence (P61169 whole entry): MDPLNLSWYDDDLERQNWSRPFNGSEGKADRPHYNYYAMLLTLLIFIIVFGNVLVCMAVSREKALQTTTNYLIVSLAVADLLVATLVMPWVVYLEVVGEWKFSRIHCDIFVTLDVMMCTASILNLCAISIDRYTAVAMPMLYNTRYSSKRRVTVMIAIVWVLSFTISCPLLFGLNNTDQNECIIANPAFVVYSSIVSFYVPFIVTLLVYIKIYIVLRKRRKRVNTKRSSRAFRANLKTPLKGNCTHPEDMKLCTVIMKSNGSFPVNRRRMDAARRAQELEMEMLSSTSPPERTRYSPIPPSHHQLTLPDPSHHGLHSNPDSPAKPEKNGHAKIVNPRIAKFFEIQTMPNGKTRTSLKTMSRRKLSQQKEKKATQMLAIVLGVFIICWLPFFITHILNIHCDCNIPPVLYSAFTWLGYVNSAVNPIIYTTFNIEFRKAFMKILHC
I1, sequence (F1N322 1-1508): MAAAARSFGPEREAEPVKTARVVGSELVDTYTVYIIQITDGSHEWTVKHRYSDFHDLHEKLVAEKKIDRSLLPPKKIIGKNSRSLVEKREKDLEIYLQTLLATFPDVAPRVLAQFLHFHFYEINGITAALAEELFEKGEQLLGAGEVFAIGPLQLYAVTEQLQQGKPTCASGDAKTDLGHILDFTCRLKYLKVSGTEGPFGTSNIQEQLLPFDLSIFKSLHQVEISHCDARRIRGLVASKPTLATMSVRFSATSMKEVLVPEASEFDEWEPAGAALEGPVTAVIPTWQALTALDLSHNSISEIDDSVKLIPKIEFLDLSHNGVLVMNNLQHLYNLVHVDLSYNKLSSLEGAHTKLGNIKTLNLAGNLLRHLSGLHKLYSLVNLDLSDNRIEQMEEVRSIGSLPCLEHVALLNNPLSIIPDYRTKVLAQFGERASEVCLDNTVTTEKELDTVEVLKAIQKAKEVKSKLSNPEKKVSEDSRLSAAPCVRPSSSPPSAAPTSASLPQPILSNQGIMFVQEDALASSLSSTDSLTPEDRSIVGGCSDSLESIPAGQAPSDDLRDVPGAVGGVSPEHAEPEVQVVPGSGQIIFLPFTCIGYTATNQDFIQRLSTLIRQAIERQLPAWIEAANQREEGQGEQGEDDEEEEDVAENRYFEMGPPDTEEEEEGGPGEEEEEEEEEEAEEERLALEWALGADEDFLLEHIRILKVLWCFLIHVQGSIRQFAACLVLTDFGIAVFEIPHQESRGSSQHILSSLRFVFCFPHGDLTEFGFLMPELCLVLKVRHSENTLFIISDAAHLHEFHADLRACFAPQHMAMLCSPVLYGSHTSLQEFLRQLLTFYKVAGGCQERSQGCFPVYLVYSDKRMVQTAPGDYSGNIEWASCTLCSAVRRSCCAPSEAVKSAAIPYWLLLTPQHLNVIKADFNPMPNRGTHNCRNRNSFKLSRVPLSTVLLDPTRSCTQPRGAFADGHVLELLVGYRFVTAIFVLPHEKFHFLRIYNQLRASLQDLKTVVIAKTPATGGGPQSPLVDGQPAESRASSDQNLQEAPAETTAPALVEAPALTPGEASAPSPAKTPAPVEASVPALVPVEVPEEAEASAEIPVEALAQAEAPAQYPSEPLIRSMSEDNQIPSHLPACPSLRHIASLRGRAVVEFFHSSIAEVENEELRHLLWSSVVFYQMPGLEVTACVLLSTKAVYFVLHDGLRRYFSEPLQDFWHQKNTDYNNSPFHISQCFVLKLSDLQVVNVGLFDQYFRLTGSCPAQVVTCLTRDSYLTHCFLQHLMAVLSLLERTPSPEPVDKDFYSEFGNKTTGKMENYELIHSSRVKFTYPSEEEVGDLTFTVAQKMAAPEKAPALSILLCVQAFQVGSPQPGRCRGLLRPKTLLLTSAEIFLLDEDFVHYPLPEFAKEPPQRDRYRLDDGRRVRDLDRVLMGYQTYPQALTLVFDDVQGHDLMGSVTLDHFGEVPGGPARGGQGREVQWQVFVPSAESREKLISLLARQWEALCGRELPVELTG

SMILES: c1ccc(-c2ncc3cc(-n4ccnc4)ccc3n2)cc1 [CR4056, 2-phenyl-6-(1H-imidazol-1yl)quinazoline]
- inhibition at 10 µM (I1): 23%
- inhibition at 10 µM (D2): 25%
- IC50 (human recombinant MAO-B): > 10000 nM
- Times less active as inhibitor of MAO-B activity than of MAO-A (human recombinant MAO-B; human recombinant enzymes): about 100 times
- inhibition at 10 µM (CCK2): 16%
- 10 μM CR4056 (% effect), inhibition of specific binding (GABA-A (muscimol site)): 26%
- Reversal of acidic saline induced allodynia ([1]; 20 and 60 mg/kg oral): completely reversed
- Mechanical threshold (grams) ± SEM, left paw (SX) ([1]; 6 mg/kg): 27.9 ± 1.1 grams
- Mechanical threshold (grams) ± SEM, right paw (DX) ([1]; 6 mg/kg): 28.3 ± 1.9 grams
- Mechanical threshold (grams) ± SEM, left paw (SX) ([1]; 20 mg/kg): 37.1 ± 0.8 grams
- Mechanical threshold (grams) ± SEM, right paw (DX) ([1]; 20 mg/kg): 38.4 ± 1.7 grams
- Mechanical threshold (grams) ± SEM, left paw (SX) ([1]; 60 mg/kg): 39.2 ± 1.6 grams
- Mechanical threshold (grams) ± SEM, right paw (DX) ([1]; 60 mg/kg): 37.4 ± 2.1 grams
- IC50 (human recombinant MAO-A): 203 ± 10.3 nM
- Reversal of the decrease in withdrawal threshold caused by capsaicin ([2]; 10 mg/kg oral, P < 0.001 versus vehicle): significantly reversed
- Reversal of the effect of capsaicin ([2]; 30 mg/kg oral): completely reversed
- ED50, capsaicin-induced mechanical hyperalgesia, CR4056 alone ([2]; p.o.): 4.13 mg/kg
- ED100, capsaicin-induced mechanical hyperalgesia ([2]; p.o.): 17.9 mg/kg
- Decrease of total STZ-induced hyperalgesic effect, AUC analysis (0–6 hours) [3]: 84%
- Reduction of mechanical hyperalgesia at 6 hours post-dosing [3]: 58%
- Reversal of STZ-induced mechanical hyperalgesia ([3]; within 30 minutes): completely reversed
- inhibition at 10 µM (D1): 19%
- Performance in rotarod test [4]: did not cause a deterioration
